Laboratory results taken from article PMC3885398, “Evaluation of the Antitumor Effects of BPR1J-340, a Potent and Selective FLT3 Inhibitor, Alone or in Combination with an HDAC Inhibitor, Vorinostat, in AML Cancer” (PLoS ONE, 2014).

Tests used:
Huh7 = experiment: Cell viability MTS assay; type: cell-based; settings: Homo sapiens, Huh-7; Huh7, non-leukemia; read-out: Proliferation GI50
Protocol: (§1) Cell viability was assessed with an MTS assay as carried out as the method described previously. Cells were seeded in 96-well plates at a density of 10,000 cells per well for 16 hours and then treated with vehicle or various concentrations of compound in medium. The change in viable cells was quantitated using the MTS method (Promega, Madison, WI, USA) according to the manufacturer's recommended protocol or by cell counting under a microscope. The GC50 value was defined as the amount of compound that caused a 50% reduction in cell viability in comparison with DMSO-treated (vehicle) control and was calculated using Prism version 4 software (Graph-Pad Software, Inc., San Diego, CA, USA). The data are presented as the mean ± S.D. from three independent experiments. Cell growth were measured by trypan blue dye exclusion method. Cells (1×10^4 mL^−1) were cultured in 12-well plates for 24 hours and then treated with different amounts of test compound and the same volumes of vehicle for 72 hours. The number of viable cells was counted by trypan blue dye staining using a hemocytometer at the indicated time point after drug treatment. The result was expressed as the mean ± S.D. from triplicate determinations.

A431 = experiment: Cell viability MTS assay; type: cell-based; settings: Homo sapiens, A-431; A431, non-leukemia; read-out: Proliferation GI50
Protocol: as §1

NCIH460 = experiment: Cell viability MTS assay; type: cell-based; settings: Homo sapiens, NCI-H460; NCIH460, non-leukemia; read-out: Proliferation GI50
Protocol: as §1

Detroit551 = experiment: Cell viability MTS assay; type: cell-based; settings: Homo sapiens, Detroit 551; Detroit551, non-leukemia; read-out: Proliferation GI50
Protocol: as §1

MiaPaCa-2 = experiment: Cell viability MTS assay; type: cell-based; settings: Homo sapiens, MIA PaCa-2; MiaPaCa-2, non-leukemia; read-out: Proliferation GI50
Protocol: as §1

H2228 = experiment: Cell viability MTS assay; type: cell-based; settings: Homo sapiens, NCI-H2228; H2228, non-leukemia; read-out: Proliferation GI50
Protocol: as §1

H1650 = experiment: Cell viability MTS assay; type: cell-based; settings: Homo sapiens, NCI-H1650; H1650, non-leukemia; read-out: Proliferation GI50
Protocol: as §1

K562 = experiment: Cell viability MTS assay; type: cell-based; settings: Homo sapiens; K562, leukemia; read-out: Proliferation GI50
Protocol: as §1

Hep3B = experiment: Cell viability MTS assay; type: cell-based; settings: Homo sapiens, non-leukemia, read-out: Proliferation GI50
Protocol: as §1

HCC827 = experiment: Cell viability MTS assay; type: cell-based; settings: Homo sapiens; HCC827, non-leukemia; read-out: Proliferation GI50
Protocol: as §1

MKN45 = experiment: Cell viability MTS assay; type: cell-based; settings: Homo sapiens, MKN-45; MKN45, non-leukemia; read-out: Proliferation GI50
Protocol: as §1

MCF-7 = experiment: Cell viability MTS assay; type: cell-based; settings: Homo sapiens, MCF7; MCF-7, non-leukemia; read-out: Proliferation GI50
Protocol: as §1

U937 = experiment: Cell viability MTS assay; type: cell-based; settings: Homo sapiens, U-937; U937, leukemia; read-out: Proliferation GI50
Protocol: as §1

RS4;11 = experiment: Cell viability MTS assay; type: cell-based; settings: Homo sapiens; RS4;11, leukemia, wild-type FLT3, FLT3-independent; read-out: Proliferation GI50 (GC50 in the text)
Protocol: as §1

MV4;11 cells = experiment: Apoptosis induction, caspase-3 and PARP cleavage by Western blot; type: cell-based, human; settings: MV4;11, 10 nM, 24 hours
Protocol: (§2) Cells were lysed in lysis buffer (50 mM Tris, pH 8.0, 150 mM NaCl, 1% Triton X-100, 0.5% sodium deoxycholate, 0.1% SDS, 1 mM sodium orthovanadate, 1 mM PMSF, and 1 mM DTT). Protein lysates were resolved by SDS-PAGE and transferred onto a polyvinylidene difluoride (PVDF) membrane (Millipore, Bedford, MA, USA). The membranes were immunoblotted with appropriate antibodies and detected using the SuperSignal reagent (Pierce, Rockford, IL, USA) followed by exposure to X-ray film.
(§3) As the inhibition of FLT3 signaling results in a loss of growth potential and an induction of apoptosis in FLT3-ITD expressing cells, the effects of BPR1J-340 on cell apoptotic response in FLT3-ITD^+ cells was investigated. The MOLM-13 and MV4;11 cells were treated with BPR1J-340 at different concentrations for 24 hours and analyzed for the induction of apoptosis using active caspase-3 and cleaved PARP (poly-ADP-ribose polymerase) analysis.
(§4) Figure 3 BPR1J-340 induces apoptosis in MOLM-13 and MV4;11 cells. […] MOLM-13 (A) and MV4;11 (B) cells were treated with BPR1J-340 at the indicated concentrations for 24 hours, and the cell lysates were then subjected to Western blot analysis using antibodies against caspase-3 and PARP (poly-ADP-ribose polymerase). (full length caspase-3 (FL-caspase-3), cleavage of caspase-3 (CL-caspase-3), full length poly(ADP-ribose) polymerase (FL-PARP), cleavage of PARP (CL-PARP)).

MOLM-13 cells = experiment: as above; type: cell-based, human; settings: MOLM-13, 10 nM, 24 hours
Protocol: as §2, §3, §4

STAT5 phosphorylation = STAT5 phosphorylation in MV4;11 cells, Western blot; type: cell-based; settings: Homo sapiens, 1 hour
Protocol: as §2
To address whether BPR1J-340 was able to inhibit the FLT3 signaling pathway in FLT3-driven cells, MV4;11 cells were treated with different concentrations of BPR1J-340 for 1 hour, and the phosphorylation status of FLT3 and STAT5 (Signal Transducer and Activator of Transcription 5), a critical down-stream modulator that plays a major role in FLT3-ITD signal transduction for cell expansion and survival, was examined by Western blot analysis. […] To investigate the difference in sensitivity between FLT3-WT and the activating mutants FLT3-ITD and FLT3-D835Y to BPR1J-340, HEK293T cells engineered to express FLT3-WT or mutants FLT3 (FLT3-ITD, FLT3-D835Y) were analyzed. […]
Figure 2 BPR1J-340 inhibits FLT3-dependent signaling. […] The phosphorylation status of FLT3 and STAT5 were evaluated by Western blot analysis. […] The FLT3 phosphorylation status in the transfected cells was evaluated by Western blot analysis.

CCc1cc(NC(=O)NCc2ccc(-c3cc(NC(=O)c4ccc(CN5CCN(C)CC5)cc4)[nH]n3)cc2)no1 [BPR1J-340, N1-(3-4-[([(5-ethyl-3-isoxazolyl)amino]carbonylamino)methyl]phenyl-1H-5-pyrazolyl)-4-[(4-methylpiperazino)methyl]benzamide]
GI50 (Huh7): 9.74 µM
GI50 (A431): 6.57 µM
GI50 (NCIH460): 13.2 µM
GI50 (Detroit551): 8.34 µM
GI50 (MiaPaCa-2): 9.96 µM
GI50 (H2228): 2.52 µM
GI50 (H1650): 3.73 µM
GI50 (K562): 6.37 µM
GI50 (Hep3B): 8.31 µM
GI50 (HCC827): 2.47 µM
GI50 (MKN45): 3.58 µM
GI50 (MCF-7): 11.3 µM
GI50 (U937): 2.4 µM
GI50 (RS4;11): 0.77 ± 0.36 µM
cleavage of caspase-3 and PARP (apoptosis) (MV4;11 cells): significant cleavage
cleavage of caspase-3 and PARP (apoptosis) (MOLM-13 cells): significant cleavage
IC50 (STAT5 phosphorylation): ~0.001 µM
